Assay results published in patent US20110178072A1, “STEREOSPECIFICITY OF METHYLSULFINYL REDUCTION” (priority 2008, published 2011).

Key:
[1] = test system: yeast fRMsr-transfected SK-Hep1 cells; assay: Growth and morphology of yeast fRMsr-expressing SK-Hep1 cells on Met sulfoxide media; assay type: cell-based, human; details: 0.1 mM
Protocol: Proliferation Assay-Cell growth was quantified using colorimetric MTS assay (Promega). Cells in regular DMEM medium were plated in 96-well plates at 5×10^3 cells/well, washed with PBS, and specialized DMEM media were added that contained Met, Met-SO, Met-RO, or Met-RSO 24 hours after plating. To assay for cell proliferation, a tetrazolium compound [3-(4,5-dimethylthiazol-2-yl)-5-(3-carboxymethoxyphenyl)-2-(4-sulfophenyl)-2H-tetrazolium, inner salt; MTS] and an electron coupling reagent (phenazine methosulfate; PMS) were mixed according to the manufacturer's protocol and then 20 μL of the mixture were added to 100 μL of phenol red-excluded media that further replaced cell culture media. After 90 minutes of incubation at 37° C. in the atmosphere of 5% CO2, cell proliferation was measured at indicated time periods from 0 to 96 hours at 450 nm in a plate reader. Direct counting of viable cells using 0.2% trypan blue was done in 6-well plates. Transfection of […] into SK-Hep1 cells-[…]-tag sequence was cloned at the C-terminus of […] sequence was inserted into a mammalian expression vector, pCI-neo (Promega), and the resulting construct was verified by DNA sequencing. […] To establish a stable cell line, cells were selected in the presence of 800 μg/mL G418 sulfate (Promega), and further maintained in the presence of 400 μg/mL G418 sulfate. […]

yeast fRMsr = target: T1, yeast fRMsr (Saccharomyces cerevisiae, UniProt P36088); assay: Activity assay of purified recombinant yeast fRMsr towards free Met sulfoxides (HPLC, OPA derivatization); assay type: biochemical, S. cerevisiae; details: for Activity of recombinant yeast fRMsr protein towards the substrate: recombinant His-tagged yeast fRMsr; for Specific activity for each Met-O: yfRMsr (yeast free methionine R-sulfoxide reductase), ± standard deviations from 3 independent experiments
T1 construct: His-tag (C); made in house; host or cells: E. coli BL21 (DE3), pET21b
T1 sequence (P36088 1-180): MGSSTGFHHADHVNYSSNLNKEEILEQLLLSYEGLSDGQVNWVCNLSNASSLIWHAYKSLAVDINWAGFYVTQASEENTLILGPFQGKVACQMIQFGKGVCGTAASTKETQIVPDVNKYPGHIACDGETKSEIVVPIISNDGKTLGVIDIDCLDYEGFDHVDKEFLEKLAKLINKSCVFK
Text: Cloning and expression of yeast fRMsr—Characterization of S. cerevisiae fRMsr (YKL069W) is described in Le, D. T., et al. (2009) Functional analysis of free methionine-R-sulfoxide reductase from Saccharomyces cerevisiae. J Biol Chem., 284(7), 4354-4364. Briefly, a yeast fRMsr cDNA, which encodes a protein homologous to fRMsr from E. coli, was amplified from S. cerevisiae genomic DNA and subcloned into pET21b vector (Novagen) using primers 5′-AAACATATGATGGGCTCATCAACCGGGTTTC-3′ (sense; SEQ ID NO:1) and 5′-AAGCGGCCGCGACACATGATTTATTAATTAATTTAGCAAG-3′ (antisense; SEQ ID NO:2). After transformation into BL21 (DE3) E. coli, the subcloned sequence was verified by DNA sequencing. Cells with the plasmid in 500 mL LB medium containing 100 μg/mL ampicillin were grown until OD600 reached 0.6-0.8, followed by addition of IPTG to 0.3 mM. Protein expression was at 30° C. for 4 hours, followed by harvesting cells by centrifugation at 4,000 rpm for 5 minutes. Cells were washed with PBS and stored at −70° C. until use.
To purify the protein, a cell pellet was dissolved in resuspension buffer (Tris-HCl, pH 7.5, 15 mM imidazole, 300 mM NaCl), and PMSF was added to a final concentration of 0.5 mM. After sonication, the supernatant was collected by centrifugation at 8,000 rpm for 30 minutes. The supernatant was loaded onto a cobalt Talon resin (Clontech) pre-equilibrated with resuspension buffer. Following washing with the same buffer, the protein was eluted with elution buffer (Tris-HCl, pH 7.5, 300 mM imidazole, 300 mM NaCl). Fractions containing yeast fRMsr were pooled together and dialyzed overnight against PBS in a dialysis cassette (Pierce).
Activity assays of fRMsr—Reaction mixture (40 μL) included 50 mM DTT, 1 mM substrate (Met-RO or Met-SO), and purified enzyme or cell lysate prepared by treatment with CelLytic™M cell lysis reagent (Sigma). 20 μL of the reaction mixture was mixed with 2 μL of TCA and subjected to OPA derivatization as described above and then injected onto the column to measure endogenous Met level in the samples. An additional 20 μL from the same original reaction mixture were incubated at 37° C. for 30 minutes and then subjected to OPA derivatization by the same procedure using TCA. After derivatization of the sample (2-5 μL) by adding OPA solution to 100 μL as a final volume, 50 μL of the mixture were subjected to an HPLC separation as described above.

Row | Activity of recombinant yeast fRMsr protein towards the substrate (yeast fRMsr) | SMILES | Growth of fRMsr-transfected cells [1] | Specific activity for each Met-O (yeast fRMsr)
1 | ≈ 33 nmol/min/mg protein | C[S@@+]([O-])CC[C@H](N)C(=O)O [Met-RO, methionine-R-sulfoxide] | essentially indistinguishable from that of cells grown in the presence of Met | 30015 ± 2652 pmol/min/mg
2 | inactive | C[S@+]([O-])CC[C@H](N)C(=O)O [Met-SO, methionine-S-sulfoxide] | essentially indistinguishable from that of cells grown in the presence of Met | ND* (A signal corresponding to specific activity less than 5 pmol/min/mg is shown as ND (Not Detectable))
